Reference: patent publication US8637038B2, “Methods for inhibiting allograft rejection” (Rigel Pharmaceuticals, Inc., priority 2011, dated 2014)
Where two headings read alike, the source gives them in different places.

Experiments:
JAK1/3 = assay: IL-2 T cell phospho-STAT5; assay type: cell-based; conditions: Homo sapiens
Description: (§1) The activity of Compound III and Compound I was assessed in a panel of cell-based assays. Compound III and Compound I are selective inhibitors of JAK1/3-dependent signaling. Data for a non-selective JAK inhibitor (Compound IV) is shown for reference. Mixed lymphocyte reactions (MLRs) were performed by incubating freshly prepared naive human peripheral blood lymphocytes from one donor with CD80+/CD86+ mature Dendritic Cells derived from a different donor for 5 days. The percentage of CD3+/CD71+ (anti-CD3-APC, Clone HIT3a, anti-CD 71-FITC, Clone M-A712; BD Biosciences, San Jose, Calif.) proliferating cells was assessed by fluorescence-activated cell sorting (FACS; BD Bioscience). Interleukin-2 (IL-2)-dependent human primary T cell proliferation was assessed using CellTiter-Glo® Luminescent Cell Viability Assay (Promega, Madison, Wis.). STAT phosphorylation induced by different cytokines in human primary T cells was measured by intracellular FACS analysis (anti-pY694-STAT5 AlexaFluor488, anti-pY701-STAT1 AlexaFluor488, and anti-pY693-STAT4 AlexaFluor488; BD Biosciences). STAT phosphorylation induced by different cytokines was performed in whole blood after red blood cell lysis (Lyse/Fix buffer, BD Biosciences) and methanol permeabilization. Interferon-γ (IFN-γ) signaling was assessed in the U937 monocytic cell line by measuring ICAM-1 surface expression by FACS (ICAM-1-APC, BD Bioscience).

JAK1/2 = assay: IFN-γ U937 ICAM-1 surface expression; assay type: cell-based; conditions: for EC50: Homo sapiens
Description: as §1

VEGFR2 = target: T1, VEGFR2 (Homo sapiens, UniProt P35968); assay: VEGF HUVEC phospho-VEGFR2; assay type: cell-based
T1 construct: endogenous in cells; host or cells: HUVEC (human umbilical vein endothelial cells)
T1 sequence (P35968 20-1356): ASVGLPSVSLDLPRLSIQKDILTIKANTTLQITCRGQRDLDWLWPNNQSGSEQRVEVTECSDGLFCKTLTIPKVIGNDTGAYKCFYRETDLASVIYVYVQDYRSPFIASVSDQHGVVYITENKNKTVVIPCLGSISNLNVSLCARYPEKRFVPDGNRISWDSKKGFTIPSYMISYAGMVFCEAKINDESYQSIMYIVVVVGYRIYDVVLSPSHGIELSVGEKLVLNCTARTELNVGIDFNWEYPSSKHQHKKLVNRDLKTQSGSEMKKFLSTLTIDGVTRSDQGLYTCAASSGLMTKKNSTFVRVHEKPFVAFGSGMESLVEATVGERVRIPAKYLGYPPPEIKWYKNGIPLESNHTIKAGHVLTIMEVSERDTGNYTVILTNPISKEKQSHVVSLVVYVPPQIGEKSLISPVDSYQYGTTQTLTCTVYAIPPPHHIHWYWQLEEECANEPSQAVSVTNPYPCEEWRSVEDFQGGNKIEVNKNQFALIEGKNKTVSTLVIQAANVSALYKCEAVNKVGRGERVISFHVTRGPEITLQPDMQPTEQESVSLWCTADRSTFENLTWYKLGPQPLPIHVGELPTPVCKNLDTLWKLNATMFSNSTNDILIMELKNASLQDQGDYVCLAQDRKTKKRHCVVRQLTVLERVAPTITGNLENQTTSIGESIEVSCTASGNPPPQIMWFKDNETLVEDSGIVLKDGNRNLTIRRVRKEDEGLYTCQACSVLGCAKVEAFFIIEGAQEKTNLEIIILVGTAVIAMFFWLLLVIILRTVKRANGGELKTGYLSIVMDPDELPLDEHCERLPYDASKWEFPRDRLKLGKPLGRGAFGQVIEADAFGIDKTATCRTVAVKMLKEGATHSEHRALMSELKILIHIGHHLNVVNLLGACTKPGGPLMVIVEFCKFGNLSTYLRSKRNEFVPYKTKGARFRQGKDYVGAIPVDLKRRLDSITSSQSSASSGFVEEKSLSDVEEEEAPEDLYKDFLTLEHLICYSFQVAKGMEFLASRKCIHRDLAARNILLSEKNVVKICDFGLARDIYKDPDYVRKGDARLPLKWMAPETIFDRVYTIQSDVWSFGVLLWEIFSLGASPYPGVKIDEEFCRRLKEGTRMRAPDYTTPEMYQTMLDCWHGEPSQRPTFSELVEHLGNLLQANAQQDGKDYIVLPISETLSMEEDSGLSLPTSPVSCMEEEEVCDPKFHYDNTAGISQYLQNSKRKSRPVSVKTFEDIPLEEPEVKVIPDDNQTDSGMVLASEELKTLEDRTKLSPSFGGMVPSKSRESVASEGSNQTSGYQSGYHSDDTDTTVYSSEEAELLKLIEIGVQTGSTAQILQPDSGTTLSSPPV
Description: (§2) Growth factor-dependent protein phosphorylation was detected in HeLa cells by staining permeabilized cells with phospho-specific antibodies and quantified by chemiluminescence (Luminator, Wallac Multilabel Counter; Perkin Elmer). Akt phosphorylation was measured following insulin stimulation and EGFR phosphorylation was measured following EGF stimulation (Phospho-AKT, Cell signaling technology, Danvers, Mass.; 1 μM Insulin, Millipore, Billerica, Mass.; Phospho-EGFR, tyr1173, clone 53A3, Cell Signaling Technology; 200 ng/ml recombinant human EGF, PeproTech, Hamburg, Germany). Human umbilical vein endothelial cells (HUVECs) were stimulated with VEGF and VEGFR2 phosphorylation was assessed by ELISA (100 ng/ml VEGF165, R&D Systems; Rabbit anti-phospho-VEGFR2 mAb, Cell Signaling Technology).

INSR = assay: Insulin HeLa phospho-Akt; assay type: cell-based; conditions: upstream kinase INSR
Description: as §2

JAK2 = assay: GM-CSF whole blood granulocytes phospho-STAT5; assay type: cell-based; conditions: read-out: GM-CSF whole blood granulocytes phospho-STAT5 EC50
Description: as §1, with “STAT phosphorylation induced by different cytokines was performed in whole blood after red blood cell lysis (Lyse/Fix buffer, BD Biosciences) and methanol permeabilization.” left out

[1] = test system: Lew recipients of heterotopic BN heart transplants; assay: Five-day heart allograft study: CD3+/CD68+ immunohistochemistry; assay type: in vivo, rat; conditions: for CD68+ cell infiltration compared to Tac HD group / CD68+ cells compared to no medication group: HD groups, five days, p<0.001; for CD68+ and CD3+ cell infiltration compared to Tac LD group: LD groups (Compound I 15 mg/kg BID, Compound III 5 mg/kg BID), p<0.05
Description: Male Brown Norway (BN) and Lewis (Lew) rats weighing 350 g were purchased from Harlan (Indianapolis, Ind.) and were housed under conventional conditions. All animals were fed standard rat chow and water ad libitum and received humane care in compliance with the Principles of Laboratory Animal Care formulated by the National Society for Medical Research and the Guide for the care and Use of Laboratory Animals published by the National Institutes of Health (National Institutes of Health publication No. 85-23, revised 1985). Allogeneic (BN-to-Lew) and syngeneic (Lew-to-Lew) heterotopic heart transplantations were performed as described previously (Ono et al., J. Thorac. Cardiovasc. Surg. 57:225-229, 1969). In brief, rats were anaesthetized using 2% isoflurane. The donor received an intravenous bolus of 500 I.U. heparin. Cardiac arrest was achieved using 20 ml Bretschneider solution (Custodiol, Dr. F. Koehler Chemie, Bensheim, Germany). […] Heart-beating score was assessed directly after transplantation for each animal from score 0 (no palpable contraction) to 4 (strong and regular contraction). Only animals with beating scores of 4 were included into the study.
(§3) Compound I and Compound III were provided by Rigel (South San Francisco, Calif.) and Tacrolimus was provided by Astellas (Munich, Germany). All drugs were administrated orally each in two different concentrations: Compound I LD (15 mg/kg BID; n=6) and HD (60 mg/kg BID; n=6); Compound III LD (5 mg/kg BID; n=6) and HD (20 mg/kg BID; n=6); Tac LD (1 mg/kg QD; n=6) and HD (4 mg/kg QD; n=6). Administration of all drugs was performed every day at the same time points. Tacrolimus was applied only once a day (QD) every 24 hours. During administration of Compound I (BID) and Compound III (BID) a 12 hour pause was kept in between each drug application.
(§4) Lew recipients of heterotopic BN heart transplants were randomly assigned to their group. Animals were either left untreated (groups 1 and 2; see Table 1,5-day study) or received their group specific medication (groups 3-8; see Table 1,5-day study) by oral application. An untreated syngeneic transplant group Lew-Lew was generated as control.
Paraffin-embedded tissue sections were deparaffinized and rehydrated. Sections were incubated with protein blocking solution (ZytoChem Plus (AP) Polymer Kit; Zytomed Systems GmbH, Berlin, Germany) to prevent background staining. After antigen retrieval, specific antibodies against rat CD68 and CD3 (Serotec, Raleigh, N.C.) were applied to identify macrophages and lymphocytes, respectively, and visualized via alkaline phosphatase and new fuchsin substrate reaction (Zytomed System GmbH; Dako, Carpinteria, Calif.). Sections were counterstained by H+E (Waldeck). After overnight incubation with primary antibody solution and subsequent washing, enhancement reagent (ZytoChem) was applied, followed by enzymatic reaction of alkaline phosphatase induced by New Fuchsin Substrate System (Dako).
Inflammatory cell densities within the myocardium were assessed with the Leica QWin software (Leica Microsystems GmbH, Wetzlar, Germany) and expressed as cells/high-power field (HPF). Histological analyses of all stainings were done by a pathologist.

[2] = test system: Lew recipients of heterotopic BN heart transplants; assay: Five-day heart allograft study: ELISPOT (IFN-γ, IL-4, IL-17) of recipient splenocytes; assay type: in vivo, rat; conditions: for IFN-γ spot frequency (ELISPOT) compared to no medication group: LD groups (Compound I 15 mg/kg BID, Compound III 5 mg/kg BID, Tac 1 mg/kg QD), five days; for suppression of IFN-γ response to donor-specific antigens compared to Tac LD treatment: LD groups
Description: as §3, §4
Lymphocytes were isolated from freshly harvested spleens. ELISPOT assays with 1×10^7/ml mitomycin-inhibited BN splenocytes and 1×10^6/ml Lew splenocytes were performed according to the manufacturer's protocol (BD Biosciences). 96-well plates were coated with IFN-γ, IL-17, and IL-4 to assess T helper cell (Th)1-, Th17-, and Th2-responses independently. All assays were performed in quadruplicates. Spots were automatically enumerated using an ELISPOT plate reader (CTL, Cincinnati, Ohio) for scanning and analyzing.

[3] = read-out: EC50, JAK1/3-dependent Stat5 phosphorylation in response to IL-2

Row | SMILES | EC50 (JAK1/3; [3]) [nM] | EC50 (JAK1/3; upstream kinases JAK1/3, read-out: IL-2 T cell phospho-STAT5 EC50) [nM] | inhibition of JAK1/2-dependent ICAM-1 expression in U937 cells in response to IFN-γ (JAK1/2) | EC50 (JAK1/2; U-937, upstream kinases JAK1/2, read-out: IFN-γ U937 ICAM-1 EC50) [nM] | EC50 (VEGFR2) [nM] | Insulin HeLa phospho-Akt EC50 (INSR) | EC50 (JAK2; whole blood, JAK2) [nM] | CD68+ cell infiltration compared to Tac HD group [1] | CD68+ cells compared to no medication group [1] | CD68+ and CD3+ cell infiltration compared to Tac LD group [1] | IL-17 cytokine release (ELISPOT) compared to no medication group ([2]; HD 60 mg/kg BID, p<0.010) | IL-17 cytokine release (ELISPOT) compared to no medication group ([2]; LD 15 mg/kg BID, p<0.001) | IL-17 spot frequency compared to Tac LD ([2]; LD 15 mg/kg BID, p<0.001) | IFN-γ spot frequency (ELISPOT) compared to no medication group [2] | suppression of IFN-γ response to donor-specific antigens compared to Tac LD treatment ([2]; p<0.001) | EC50 (JAK1/3; read-out: IL-2 T cell phospho-STAT5 EC50) [nM] | EC50 (JAK1/2; U-937, read-out: IFN-γ U937 ICAM-1 EC50) [nM] | EC50 (JAK2) [nM] | IFN-γ spot frequency compared to Tac HD group ([2]; Compound III LD 5 mg/kg BID, p<0.05)
1 | COc1cc(Nc2ncc(C)c(Nc3ccc4oc(=O)[nH]c4c3)n2)cc(C)c1F [Compound I, 5-(2-(4-fluoro-3-methoxy-5-methylphenylamino)-5-methylpyrimidin-4-ylamino)benzo[d]oxazol-2(3H)-one] | 21 | 21 ± 9 | limited inhibition | 417 ± 211 | 17800 ± 3870 | Inactive | 32700 ± 9510 | significantly less | significantly reduced | less CD68+ and CD3+ cell infiltration | significantly suppressed | significantly suppressed | significantly less spot frequency | significantly reduced | significantly better results |  |  |  | 
2 | COc1cc(Nc2ncc(C)c(Nc3ccc4oc(=O)[nH]c4c3)n2)cc(C)c1C [Compound III, 5-(2-(3-methoxy-4,5-dimethylphenylamino)-5-methylpyrimidin-4-ylamino)benzol[d]oxazol-2-(3H)-one] | 35 |  | limited inhibition |  | 29300 ± 14300 | Inactive |  | significantly less | significantly reduced | less CD68+ and CD3+ cell infiltration |  |  |  | significantly reduced | significantly better results | 35 ± 15 | 791 ± 352 | > 50000 | less IFN-γ spot frequency
